Where two headings read alike, the source gives them in different places.
Key:
[1] = for Kd: 0.02 m tris buffer
Description: After sonication and mixing by vortex mixer, the phenytoin-suspended solutions were placed in a shaking, temperature controlled water bath for at least 5 days at 25° C. After equilibration, checked by periodic sampling, the suspensions were filtered through a membrane filter (Acrodisc, PVDF 0.2 μm, Gelman). The filtrate was isolated and diluted with HPLC mobile phase and the concentration of phenytoin was determined by HPLC. This work was performed in duplicate.
This phenomena is illustrated in Scheme (2). The binding constant for the phenytoin/(SBE)7m-β-CD complex, K1 can be calculated by the slope and intercept of the data from FIG. 3 (absence of fosphenytoin) according to Eq 2 (Hiquchi, T and Connors K. A.) […]
K1 =Slope/Intercept(1-Slope) (2)
K2, the binding constant for the fosphenytoin/(SBE)7m-β-CD complex can be calculated according to Eq. 6 as follows; K1 =(St-So')/(St-(St-So'))(Lt-(St-so')-x)
K1 =Slope/So'(1-Slope-x/Lt) (3)
K2 =x/(St'-x)(Lt-(St-So')-x
=(x/Lt)/(St'-x)(1-Slope-x/Lt) (4) […]
x/Lt=1-Slope-Slope/K1 So' (5)
Eq. 4 and Eq. 5 lead to Eqs. 6 and 7, K2 =(1/(St'-x))K1 So'/Slope-So'K1 -1) (6)
≈(1/St')(K1 So'/Slope-So'K1 -1) (7) where various terms are defined in Scheme (2). The term, St'-x, in Eq. 6 represents the free fraction of fosphenytoin in the presence of CD and theoretically should change with increasing CD concentration.

[2] = 25° C.
From the text: Two different shelf-life criteria were considered; time to exceed phenytoin solubility in the presence and absence of (SBE)7m-β-CD and 0.5% phenytoin production.

[3] = high pH 8.5 formulation, refrigeration; cited from earlier work
[4] = literature value; cited from earlier work
[5] = Arrhenius plot for phenytoin production rate from fosphenytoin; type: physicochemical
From the text: These values are higher than those reported previously; 30.8 kcal/mol and also are higher than Ea values reported from most other drug degradation studies (10-30 kcal/mol) (Yoshioka, S. Stability of Drugs and Dosage Forms, Nankodo Co. Ltd., Tokyo, 1995; pp.30-67). One possible explanation for the difference may be the effect of temperature on the pH of tris buffer solutions. […] Consequently, the change of phenytoin production rate can attribute not only to the direct effect of temperature on the kinetics but also the effect of temperature on pH. Since our principal goal was to study the effect of temperature on the stability of some protype formulations, buffer pH values were not adjusted at each temperature.

[6] = pH values >8.0; cited from earlier work
[7] = AHFS Drug Information; cited from earlier work
[8] = cited from earlier work
[9] = Phenytoin solubility in absence and presence of fosphenytoin and (SBE)7m-β-CD; type: physicochemical; details: 0.02 m tris buffer
Description: This work was performed in duplicate.
The fosphenytoin concentration of 80.6 mg/ml (75 mg/ml anhydrous fosphenytoin) was the same as the commercial product. […] The solubility of phenytoin is elevated in the presence of fosphenytoin probably through micellar or complex formation (Anderson et al. J. Pharm. Sci. 74 375-381; Muller et al. Int. J. Pharm. 75 201-209, 1991).

**Q.** For `O=C1NC(c2ccccc2)(c2ccccc2)C(=O)N1COP(=O)(O)O` [fosphenytoin], which Kd ([1]; pH 7.4) is on record?
**A.** The Kd was 25.6 mM.

**Q.** What about the Kd ([1]; pH 8) of the same compound?
**A.** The Kd was 29.4 mM.

**Q.** What about the “Time without phenytoin precipitation” value ([2]; 60 mM (SBE)7m-β-CD, either pH) of the same compound?
**A.** The value was “over two years”.

**Q.** And the “Physically stable formulations, shelf-life” value ([2]; pH range 7.4-8.0)?
**A.** The value was “greater than two years”.

**Q.** What about the “Time without phenytoin precipitation” value ([2]; pH 8.0, 60 mM (SBE)7m-β-CD) of the same compound?
**A.** The value was “at least 17 years”.

**Q.** What about the “Shelf-life by 0.5% phenytoin production criterion” value ([2]; with (SBE)7m-β-CD) of the same compound?
**A.** The value was “greater than two year”.

**Q.** And the “Shelf-life of the prodrug product” value [3]?
**A.** Its value is “two years”.

**Q.** And the Ea reported previously [4]?
**A.** Its Ea reported previously is 30.8 kcal/mol.

**Q.** What about the “Ea (apparent activation energy), phenytoin production” value ([5]; pH 7.4) of the same compound?
**A.** The value was 38.9 kcal/mol.

**Q.** And the “Ea (apparent activation energy), phenytoin production” value ([5]; pH 8.0)?
**A.** The value was 39.5 kcal/mol.

**Q.** What about the “Kinetics of phenytoin production” value (0.02M tris, 60° C., pH 7.4 and 8.0) of the same compound?
**A.** Its value is “apparent zero-order kinetics”.

**Q.** And the “Influence of (SBE)7m-β-CD on phenytoin production rate” value (30 or 60 mM (SBE)7m-β-CD, fosphenytoin 80.6 mg/ml)?
**A.** Its value is “did not appear to influence the phenytoin production rate although here was a very slight trend to greater stability with increasing (SBE)7m-β-CD concentration”.

**Q.** And the “Kinetics of phenytoin production” value (all temperatures, CD concentrations and both pH values)?
**A.** Its value is “pseudo zero-order kinetics”.

**Q.** What about the “Degradant peaks (phenytoin vs earlier eluting peak)” value (pH 7.4) of the same compound?
**A.** The value was “phenytoin was the major degradant peak observed”.

**Q.** What about the “Rate of Phenytoin Production” value (pH 7.4, 25° C., 0 mM CD) of the same compound?
**A.** The value was 0.160 µg/mL/day.

**Q.** What about the “Rate of Phenytoin Production” value (pH 7.4, 25° C., 60 mM CD) of the same compound?
**A.** The value was 0.133 µg/mL/day.

**Q.** And the “Rate of Phenytoin Production” value (pH 7.4, 37° C., 60 mM CD)?
**A.** Its value is 0.993 µg/mL/day.

**Q.** And the “Rate of Phenytoin Production” value (pH 7.4, 50° C., 60 mM CD)?
**A.** Its value is 21.37 µg/mL/day.

**Q.** And the “Rate of Phenytoin Production” value (pH 7.4, 60° C., 0 mM CD)?
**A.** Its value is 111.8 µg/mL/day.

**Q.** What about the “Degradant peaks (phenytoin vs earlier eluting peak)” value (pH 8) of the same compound?
**A.** The value was “this peak had an area comparable to that of phenytoin”.

**Q.** What about the “Rate of Phenytoin Production” value (pH 8.0, 25° C., 0 mM CD) of the same compound?
**A.** The value was 0.083 µg/mL/day.

**Q.** What about the “Rate of Phenytoin Production” value (pH 8.0, 25° C., 30 mM CD) of the same compound?
**A.** Its value is 0.088 µg/mL/day.

**Q.** What about the “Rate of Phenytoin Production” value (pH 8.0, 25° C., 60 mM CD) of the same compound?
**A.** Its value is 0.075 µg/mL/day.

**Q.** What about the “Rate of Phenytoin Production” value (pH 8.0, 37° C., 0 mM CD) of the same compound?
**A.** Its value is 0.634 µg/mL/day.

**Q.** What about the “Rate of Phenytoin Production” value (pH 8.0, 37° C., 30 mM CD) of the same compound?
**A.** Its value is 0.600 µg/mL/day.

**Q.** What about the “Rate of Phenytoin Production” value (pH 8.0, 37° C., 60 mM CD) of the same compound?
**A.** Its value is 0.562 µg/mL/day.

**Q.** And the “Rate of Phenytoin Production” value (pH 8.0, 50° C., 30 mM CD)?
**A.** The value was 14.43 µg/mL/day.

**Q.** What about the “Rate of Phenytoin Production” value (pH 8.0, 50° C., 60 mM CD) of the same compound?
**A.** Its value is 13.82 µg/mL/day.

**Q.** And the “Rate of Phenytoin Production” value (pH 8.0, 60° C., 0 mM CD)?
**A.** Its value is 67.20 µg/mL/day.

**Q.** What about the “Stability at higher pH” value [6] of the same compound?
**A.** Its value is “more unstable”.

**Q.** With `O=C1NC(=O)C(c2ccccc2)(c2ccccc2)N1` [phenytoin] as the compound, how does the Kd ([1]; pH 7.4) read?
**A.** The Kd was 0.932 mM.

**Q.** And the Kd ([1]; pH 8)?
**A.** The Kd was 1.26 mM.

**Q.** And the “Type of phase solubility diagram” value ([1]; 25° C., pH 7.4 and 8.0, presence or absence of 80.6 mg/ml fosphenytoin)?
**A.** The value was “AL-type”.

**Q.** And the “Solubility enhancement in presence of fosphenytoin vs absence” value ([1]; (SBE)7m-β-CD, 25° C.)?
**A.** Its value is “lower than that in the absence of fosphenytoin”.

**Q.** What about the pKa value [7] of the same compound?
**A.** The pKa value was 8.06-8.33.

**Q.** What about the Solubility ([8]; pH values <8) of the same compound?
**A.** Its Solubility is 20 to 25 µg/mL.

**Q.** What about the Intrinsic aqueous solubility ([8]; phenytoin, background) of the same compound?
**A.** Its Intrinsic aqueous solubility is “less than 25 μg/ml”.

**Q.** And the solubility at 120 h ([9]; pH 7.4, aqueous buffer, pH 7.4, 0 mM (SBE)7m-β-CD, 25° C., read-out: Phenytoin Conc. (Solubility Criteria))?
**A.** The solubility at 120 h was 49.8 µg/mL.

**Q.** What about the solubility at 120 h ([9]; pH 7.4, aqueous buffer, pH 7.4, 60 mM (SBE)7m-β-CD, 25° C., read-out: Phenytoin Conc. (Solubility Criteria)) of the same compound?
**A.** The solubility at 120 h was 451 µg/mL.

**Q.** What about the solubility at 120 h ([9]; pH 7.4, aqueous buffer, pH 7.4, 25° C., absence of fosphenytoin, read-out: Solubility of phenytoin) of the same compound?
**A.** Its solubility at 120 h is 18.1 µg/mL.

**Q.** And the solubility at 120 h ([9]; pH 7.4, aqueous buffer, pH 7.4, 25° C., presence of fosphenytoin 80.6 mg/ml, read-out: Solubility of phenytoin)?
**A.** The solubility at 120 h was 49.8 µg/mL.

**Q.** What about the solubility at 120 h ([9]; pH 8, aqueous buffer, pH 8.0, 0 mM (SBE)7m-β-CD, 25° C., read-out: Phenytoin Conc. (Solubility Criteria)) of the same compound?
**A.** Its solubility at 120 h is 61.9 µg/mL.

**Q.** What about the solubility at 120 h ([9]; pH 8, aqueous buffer, pH 8.0, 30 mM (SBE)7m-β-CD, 25° C., read-out: Phenytoin Conc. (Solubility Criteria)) of the same compound?
**A.** The solubility at 120 h was 274 µg/mL.

**Q.** And the solubility at 120 h ([9]; pH 8, aqueous buffer, pH 8.0, 60 mM (SBE)7m-β-CD, 25° C., read-out: Phenytoin Conc. (Solubility Criteria))?
**A.** Its solubility at 120 h is 476 µg/mL.

**Q.** And the solubility at 120 h ([9]; pH 8, aqueous buffer, pH 8.0, 25° C., presence of fosphenytoin 80.6 mg/ml, read-out: Solubility of phenytoin)?
**A.** The solubility at 120 h was 61.9 µg/mL.

**Q.** And the solubility at 120 h ([9]; pH 8, aqueous buffer, pH 8.0, 25° C., printed 'in the absence of phenytoin', read-out: Solubility of phenytoin)?
**A.** The solubility at 120 h was 27.5 µg/mL.
